# Data reported in publication PMC12212452, “Studies of All-trans Retinoic Acid Transport in the Eye” (Investigative Ophthalmology & Visual Science, 2025).
# Key:
# Test in all cases: tryptophan fluorescence quenching, quadratic fit
# Conditions in all cases: read-out: Association Constant / Quadratic Model Ka (×10^5 M^-1) (converted)
# [1] = target: T1, BSA (bovine serum albumin) (Bos taurus, UniProt P02769); type: binding
# T1 construct: gene ALB; not biotinylated in the Ka titrations
# Description: tryptophan fluorescence quenching, quadratic fit on BSA (bovine serum albumin)
# [2] = target: T2, CRABP2 (cellular retinoic acid-binding protein 2) (Mus musculus, UniProt P22935)
# T2 construct: recombinant in E. coli BL21(DE3), GST tag removed by PreScission Protease
# T2 sequence (P22935 1-138): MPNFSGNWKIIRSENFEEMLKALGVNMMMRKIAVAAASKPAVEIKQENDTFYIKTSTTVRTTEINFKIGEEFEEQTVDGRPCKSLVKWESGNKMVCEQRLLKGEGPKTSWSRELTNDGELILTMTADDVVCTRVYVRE
# Description: tryptophan fluorescence quenching, quadratic fit on CRABP2 (cellular retinoic acid-binding protein 2)
# [3] = target: T3, RBP1 (cellular retinol-binding protein 1) (Mus musculus, UniProt Q00915)
# T3 construct: recombinant in E. coli BL21, GST tag cleaved with ProTEV protease
# T3 sequence (Q00915 1-135): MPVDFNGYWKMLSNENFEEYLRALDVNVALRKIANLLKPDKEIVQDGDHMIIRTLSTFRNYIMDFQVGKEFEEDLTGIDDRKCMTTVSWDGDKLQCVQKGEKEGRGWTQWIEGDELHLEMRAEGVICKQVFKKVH
# Description: tryptophan fluorescence quenching, quadratic fit on RBP1 (cellular retinol-binding protein 1)
# T1 sequence (P02769 25-607): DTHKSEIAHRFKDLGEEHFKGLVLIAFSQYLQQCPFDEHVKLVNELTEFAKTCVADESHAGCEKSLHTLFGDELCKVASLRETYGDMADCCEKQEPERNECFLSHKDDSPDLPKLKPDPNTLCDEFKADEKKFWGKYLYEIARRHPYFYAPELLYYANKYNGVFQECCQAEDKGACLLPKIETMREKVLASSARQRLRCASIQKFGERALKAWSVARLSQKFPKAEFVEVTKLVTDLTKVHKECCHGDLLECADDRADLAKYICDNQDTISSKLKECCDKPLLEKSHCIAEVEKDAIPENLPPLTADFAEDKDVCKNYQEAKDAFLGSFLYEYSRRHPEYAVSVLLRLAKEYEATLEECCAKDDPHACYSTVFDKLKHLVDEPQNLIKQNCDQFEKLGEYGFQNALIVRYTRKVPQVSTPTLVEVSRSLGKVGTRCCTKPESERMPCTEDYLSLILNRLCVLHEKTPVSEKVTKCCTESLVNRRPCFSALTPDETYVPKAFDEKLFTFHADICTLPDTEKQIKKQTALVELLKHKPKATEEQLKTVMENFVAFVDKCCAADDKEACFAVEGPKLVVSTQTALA
Kd [1] [µM],Kd [2] [µM],Kd [3] [µM],Structure (SMILES)
4.17,0.0128,,CC1=C(/C=C/C(C)=C/C=C/C(C)=C/C(=O)O)C(C)(C)CCC1 [atRA]
4.76,0.0149,1.27,CC(C)N1CCC(C)(C)c2cc(C#Cc3ccc(C(=O)O)cc3)ccc21 [floRA]
